In US20220402950A1, “SUBSTITUTED BENZIMIDAZOLES AS PAD4 INHIBITORS” (BRISTOL-MYERS SQUIBB COMPANY, priority 2018, published 2022):

biological target: human PAD4 (hPAD4) (Homo sapiens, UniProt Q9UM07); experiment: RFMS Human PAD4 Functional Assay; format: biochemical; conditions: hPAD4 RFMS IC50, human PAD4, rapid-fire mass spectrum (RFMS) assay; 5 nM hPAD4, 250 μM BAEE
Outline: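 RapidFire ESI-MS quantification, normalised to a modified-citrulline internal standard, after phenyl glyoxal (final 4 mM) derivatisation of the TCA-quenched reaction. The enzyme (10 nM) sat 30 min with compound (up to 50 μM final) before 500 μM BAEE (as added) started a 90 min, 37 °C reaction. Buffer: HEPES pH 7.5, 50 μM calcium, 5 μM TPEN.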

human PAD4 (hPAD4), sequence (Q9UM07 whole entry): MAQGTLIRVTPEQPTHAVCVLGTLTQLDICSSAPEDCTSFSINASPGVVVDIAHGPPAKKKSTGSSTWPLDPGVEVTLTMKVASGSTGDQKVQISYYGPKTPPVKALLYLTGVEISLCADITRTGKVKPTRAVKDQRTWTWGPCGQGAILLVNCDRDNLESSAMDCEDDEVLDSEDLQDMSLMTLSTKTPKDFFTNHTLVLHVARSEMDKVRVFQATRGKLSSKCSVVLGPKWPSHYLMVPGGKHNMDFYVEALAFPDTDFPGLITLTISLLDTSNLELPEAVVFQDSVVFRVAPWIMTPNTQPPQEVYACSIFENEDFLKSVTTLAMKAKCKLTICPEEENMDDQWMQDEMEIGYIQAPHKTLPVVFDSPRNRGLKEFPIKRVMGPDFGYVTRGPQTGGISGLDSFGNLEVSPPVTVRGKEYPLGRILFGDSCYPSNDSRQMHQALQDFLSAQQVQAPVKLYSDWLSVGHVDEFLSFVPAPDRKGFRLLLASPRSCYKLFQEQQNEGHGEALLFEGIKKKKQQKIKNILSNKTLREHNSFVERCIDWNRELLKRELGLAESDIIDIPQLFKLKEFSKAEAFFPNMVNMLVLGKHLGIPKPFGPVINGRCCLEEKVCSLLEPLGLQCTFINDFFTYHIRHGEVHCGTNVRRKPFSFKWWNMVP

| Compound | IC50 [nM] |
| --- | --- |
| COc1cc(C(=O)N2C[C@H]3CC[C@@H]2[C@@H]3N)cc2nc(-c3cc4cccc(-c5ccc6c(c5)C(F)(F)C(=O)N6)c4n3CC3CC3)n(C)c12 [Example 190, 5-(2-(5-((1R,4R,7R)-7-amino-2-azabicyclo[2.2.1]heptane-2-carbonyl)-7-methoxy-1-methyl-1H-benzo[d]imidazol-2-yl)-1-(cyclopropylmethyl)-1H-indol-7-yl)-3,3-difluoroindolin-2-one] | 85 |
| COc1cc(C(=O)N2C[C@H]3CC[C@@H]2[C@@H]3N)cc2nc(-c3cc4cccc(-c5cc[nH]n5)c4n3CC3CC3C)n(C)c12 (stereo partly drawn) [Example 157, ((1R,4R,7R)-7-amino-2-azabicyclo[2.2.1]heptan-2-yl)(7-methoxy-1-methyl-2-(1-((2-methylcyclopropyl)meth-yl)-7-(1H-pyrazol-3-yl)-1H-indol-2-yl)-1H-benzo[d]imidazol-5-yl)methanone] | 80 |
| COc1cc(C(=O)N2C[C@H]3CC[C@@H]2[C@@H]3N)cc2nc(-c3cc4cccc(-c5ccc(CNC(C)=O)cc5)c4n3CC3CC3)n(C)c12 [Example 89, N-{[4-(2-{5-[(1R,4R,7R)-7-amino-2-azabicyclo[2.2.1]heptane-2-carbonyl]-7-methoxy-1-methyl-1H-1,3-benzodiazol-2-yl}-1-(cyclopropylmethyl)-1H-indol-7-yl)phenyl]methyl}acetamide] | 108 |
| COc1cc(C(=O)N2C[C@H]3CC[C@@H]2[C@@H]3N)cc2nc(-c3cc4cccc(C5CN(C(=O)CCc6ccccc6)C5)c4n3CC3CC3)n(C)c12 [Example 79, 1-[3-(2-{5-[(1R,4R,7R)-7-amino-2-azabicyclo[2.2.1]heptane-2-carbonyl]-7-methoxy-1-methyl-1H-1,3-benzodiazol-2-yl}-1-(cyclopropylmethyl)-1H-indol-7-yl)azetidin-1-yl]-3-phenylpropan-1-one] | 12 |
| COc1cc(C(=O)N2C[C@H]3CC[C@@H]2[C@@H]3N)cc2nc(-c3cc4cccc(C5CN(C(=O)Nc6ccc(F)cc6)C5)c4n3CC3CC3)n(C)c12 [Example 229, 3-(2-(5-((1R,4R,7R)-7-amino-2-azabicyclo[2.2.1]heptane-2-carbonyl)-7-methoxy-1-methyl-1H-benzo[d]imidazol-2-yl)-1-(cyclopropylmethyl)-1H-indol-7-yl)-N-(4-fluorophenyl)azetidine-1-carboxamide] | 13 |
| COc1cc(C(=O)N2CC3CCC2[C@@H]3N)cc2nc(-c3cc4cccc(Nc5cc(C)nc(C)c5)c4n3CC3CC3)n(C)c12 (stereo partly drawn) [Example 161, ((7R)-7-amino-2-azabicyclo[2.2.1]heptan-2-yl)(2-(1-(cyclopropylmethyl)-7-((2,6-dimethylpyridin-4-yl)amino)-1H-indol-2-yl)-7-methoxy-1-methyl-1H-benzo[d]imidazol-5-yl)methanone] | 103 |
| COc1cc(C(=O)N2C[C@H]3CC[C@@H]2[C@@H]3N)cc2nc(-c3cc4cccc(CCC#N)c4n3CC3CC3)n(C)c12 [Example 19, 3-(2-{5-[(1R,4R,7R)-7-amino-2-azabicyclo[2.2.1]heptane-2-carbonyl]-7-methoxy-1-methyl-1H-1,3-benzodiazol-2-yl}-1-(cyclopropylmethyl)-1H-indol-7-yl)propanenitrile] | 90 |
| COc1cc(C(=O)N2C[C@H]3CC[C@@H]2[C@@H]3N)cc2nc(-c3cc4cccc(CC5CNC5)c4n3CC3CC3)n(C)c12 [Example 26, (1R,4R,7R)-2-(2-{7-[(azetidin-3-yl)methyl]-1-(cyclopropylmethyl)-1H-indol-2-yl}-7-methoxy-1-methyl-1H-1,3-benzodiazole-5-carbonyl)-2-azabicyclo[2.2.1]heptan-7-amine] | 41 |
| COc1cc(C(=O)N2CC3CCC2[C@@H]3N)cc2nc(-c3cc4cccc(Nc5ccnc(C)c5)c4n3CC3CC3)n(C)c12 (stereo partly drawn) [Example 163, ((7R)-7-amino-2-azabicyclo[2.2.1]heptan-2-yl)(2-(1-(cyclopropylmethyl)-7-((2-methylpyridin-4-yl)amino)-1H-indol-2-yl)-7-methoxy-1-methyl-1H-benzo[d]imidazol-5-yl)methanone] | 58 |
| COc1cc(C(=O)N2C[C@H](N)C[C@@H](F)C2)cc2nc(-c3cc4cccc(-c5ccc6c(c5)CC(=O)N6)c4n3CC3CC3)n(C)c12 [Example 207, 5-(2-(5-((3R,5R)-3-amino-5-fluoropiperidine-1-carbonyl)-7-methoxy-1-methyl-1H-benzo[d]imidazol-2-yl)-1-(cyclopropylmethyl)-1H-indol-7-yl)indolin-2-one] | 70 |
| CCOCC(=O)N1CCC(c2cccc3cc(-c4nc5cc(C(=O)N6C[C@H]7CC[C@@H]6[C@@H]7N)cc(OC)c5n4C)n(CC4CC4)c23)CC1 [Example 234, 1-(4-(2-(5-((1R,4R,7R)-7-amino-2-azabicyclo[2.2.1]heptane-2-carbonyl)-7-methoxy-1-methyl-1H-benzo[d]imidazol-2-yl)-1-(cyclopropylmethyl)-1H-indol-7-yl)piperidin-1-yl)-2-ethoxyethan-1-one] | 49 |
| COc1cc(C(=O)N2C[C@H]3CC[C@@H]2[C@@H]3N)cc2nc(-c3cc4cccc(C5CCNCC5)c4n3CC3CC3)n(C)c12 [Example 4, (1R,4R,7R)-2-{2-[1-(cyclopropylmethyl)-7-(piperidin-4-yl)-1H-indol-2-yl]-7-methoxy-1-methyl-1H-1,3-benzodiazole-5-carbonyl}-2-azabicyclo[2.2.1]heptan-7-amine] | 30 |
| CCOC(=O)c1ccccc1-c1cccc2cc(-c3nc4cc(C(=O)N5C[C@H]6CC[C@@H]5[C@@H]6N)cc(OC)c4n3C)n(CC3CC3)c12 [Example 123, ethyl 2-(2-(5-((1R,4R,7R)-7-amino-2-azabicyclo[2.2.1]heptane-2-carbonyl)-7-methoxy-1-methyl-1H-benzo[d]imidazol-2-yl)-1-(cyclopropylmethyl)-1H-indol-7-yl)benzoate] | 84 |
| COc1cc(C(=O)N2C[C@H]3CC[C@@H]2[C@@H]3N)cc2nc(-c3cc4cccc(C5CCC(N)CC5)c4n3CC3CC3)n(C)c12 (stereo partly drawn) [Example 13, (1R,4R,7R)-2-{2-[7-(4-aminocyclohexyl)-1-(cyclopropylmethyl)-1H-indol-2-yl]-7-methoxy-1-methyl-1H-1,3-benzodiazole-5-carbonyl}-2-azabicyclo[2.2.1]heptan-7-amine] | 16 |
| COc1cc(C(=O)N2C[C@H]3CC[C@@H]2[C@@H]3N)cc2nc(-c3cc4cccc(C5CN(C(=O)C(C)(C)O)C5)c4n3CC3CC3)n(C)c12 [Example 69, 1-[3-(2-{5-[(1R,4R,7R)-7-amino-2-azabicyclo[2.2.1]heptane-2-carbonyl]-7-methoxy-1-methyl-1H-1,3-benzodiazol-2-yl}-1-(cyclopropylmethyl)-1H-indol-7-yl)azetidin-1-yl]-2-hydroxy-2-methylpropan-1-one] | 50 |
| COc1cc(C(=O)N2C[C@H]3CC[C@@H]2[C@@H]3N)cc2nc(-c3cc4cccc(C5CCS(=O)(=O)C5)c4n3CC3CC3)n(C)c12 (stereo partly drawn) [Example 30, ((1R,4R,7R)-7-amino-2-azabicyclo[2.2.1]heptan-2-yl)(2-(1-(cyclopropylmethyl)-7-(1,1-dioxidotetrahydrothiophen-3-yl)-1H-indol-2-yl)-7-methoxy-1-methyl-1H-benzo[d]imidazol-5-yl)methanone] | 80 |
| COc1cc(C(=O)N2C[C@H]3CC[C@@H]2[C@@H]3N)cc2nc(-c3cc4cccc(C5CC(C(=O)N(C)C)C5)c4n3CC3CC3)n(C)c12 (single isomer, unassigned) [Example 47] | 13 |
| COc1cc(C(=O)N2C[C@H]3CC[C@@H]2[C@@H]3N)cc2nc(-c3cc4cccc(C5CCN(C(=O)Nc6ccc(F)cc6)CC5)c4n3CC3CC3)n(C)c12 [Example 241, 4-(2-(5-((1R,4R,7R)-7-amino-2-azabicyclo[2.2.1]heptane-2-carbonyl)-7-methoxy-1-methyl-1H-benzo[d]imidazol-2-yl)-1-(cyclopropylmethyl)-1H-indol-7-yl)-N-(4-fluorophenyl)piperidine-1-carboxamide] | 28 |

same assay, conditions: human PAD4, rapid-fire mass spectrum (RFMS) assay; 5 nM hPAD4, 250 μM BAEE; read-out: hPAD4 RFMS IC50

| Compound | IC50 [nM] |
| --- | --- |
| COc1cc(C(=O)N2C[C@H]3CC[C@@H]2[C@@H]3N)cc2nc(-c3cc4cccc(-n5cc(C6CNC6)nn5)c4n3CC3CC3)n(C)c12 [Example 110, (1R,4R,7R)-2-(2-{7-[4-(azetidin-3-yl)-1H-1,2,3-triazol-1-yl]-1-(cyclopropylmethyl)-1H-indol-2-yl}-7-methoxy-1-methyl-1H-1,3-benzodiazole-5-carbonyl)-2-azabicyclo[2.2.1]heptan-7-amine] | 137 |
| COc1cc(C(=O)N2C[C@H]3CC[C@@H]2[C@@H]3N)cc2nc(-c3cc4cc(C)ccc4n3CC3CC3)n(C)c12 [Example 153, ((1R,4R,7R)-7-amino-2-azabicyclo[2.2.1]heptan-2-yl)(2-(1-(cyclopropylmethyl)-5-methyl-1H-indol-2-yl)-7-methoxy-1-methyl-1H-benzo[d]imidazol-5-yl)methanone] | 135 |
| COc1cc(C(=O)N2C[C@H]3CC[C@@H]2[C@@H]3N)cc2nc(-c3cc4cccc(C5=CCNCC5)c4n3CC3CC3)n(C)c12 [Example 84] | 34 |
| COc1cc(C(=O)N2C[C@H]3CC[C@@H]2[C@@H]3N)cc2nc(-c3cc4cccc(C5CN(C(=O)CN)C5)c4n3CC3CC3)n(C)c12 [Example 65, 2-amino-1-[3-(2-{5-[(1R,4R,7R)-7-amino-2-azabicyclo[2.2.1]heptane-2-carbonyl]-7-methoxy-1-methyl-1H-1,3-benzodiazol-2-yl}-1-(cyclopropylmethyl)-1H-indol-7-yl)azetidin-1-yl]ethan-1-one] | 24 |
| COC(=O)N1CC(c2cccc3cc(-c4nc5cc(C(=O)N6C[C@H]7CC[C@@H]6[C@@H]7N)cc(OC)c5n4C)n(CC4CC4)c23)C1 [Example 40, Methyl 3-(2-(5-((1R,4R,7R)-7-amino-2-azabicyclo[2.2.1]heptane-2-carbonyl)-7-methoxy-1-methyl-1H-benzo[d]imidazol-2-yl)-1-(cyclopropylmethyl)-1H-indol-7-yl)azetidine-1-carboxylate] | 21 |
